How the values were obtained:
[1] = system: large triglyceride rich lipoprotein subclasses; assay: Human study with sibutramine: TRL response (AUC 5-11 hr) to fat load versus placebo, NMR LipoProfile; type: in vivo
Procedure: Note that where TRL V6 response can be equated with the response of a combination of subtypes, it is because the magnitude of the change in signal, which is due to the change of TRL V6 signal, is sufficiently large compared to the base line signal, to be a significant difference (i.e. the signal from TRL V6 in the base line signal dominates the combined signal so that a change in TRL V6 is reliably detected).
A SNDRI (sibutramine) known to be able to induce weight loss in humans is tested to correlate its ability to reduce TRL V6 response plasma concentrations and V-TRL response in humans in an exploratory biomarker study employing a single-blind, crossover design, comparing sibutramine and placebo in hypertriglyceridemic and overweight and obese but otherwise healthy subjects.
Three cohorts containing 6 subjects each, undergo three periods during the study. Subjects are fasted overnight and two fasting blood draws are obtained, followed by breakfast at approximately 07:00 hours. Placebo or sibutramine is administered at approximately 10:00 hours. Blood sampling is begun approximately 1 hr. after the start of breakfast and continues at hourly intervals for 7 hr., and then every 2 hr. for the next 10 hr. A lunch according to Example fat load 2 is served at approximately 12:00 hours (approximately 60 to 65 g of fat). No other food is permitted until 12 hr. post fat load administration. Subjects are released after the last blood sampling for a 4 to 8-day washout period before return for the second testing period of the study. After the washout period, subjects are again fasted overnight. The procedures are then repeated as in the first testing period of the study except that each subject crosses over to receive the alternate treatment, sibutramine or placebo. Blood samples are collected, processed and analyzed essentially as described in Example 1 above.
TRL V6 responses and V-TRL responses are observed during the period from 5 to 11 hr. post fat load. […] In most subjects, the administration of sibutramine reduced the magnitude of the TRL V6 response and V-TRL response compared to their placebo-treated responses. Thus the reduction of the TRL V6 response and V-TRL response induced by the SNDRI correlates with the SNDRI known ability to induce weight loss in humans.

[2] = system: TRL V6; assay: Cross therapeutic target rat study: reduction of circulating TRL V6 concentration after an acute dose (NMR LipoProfile); type: in vivo, DIO-LE rats; conditions: for Reduction in TRL V6 Response T1-(ie 2 hrs) / Reduction in TRL V6 Response T2-(ie 5 hrs) / Reduction in TRL V6 Response T3-(ie 18 hrs): DIO-LE rats on high fat chow, acute dose as in the Dose column; for Reduction in TRL V6 Response T1-(ie 2 hrs): T1 (ie 2 hrs) post dose; for Reduction in TRL V6 Response T2-(ie 5 hrs): T2 (ie 5 hrs) post dose; for Reduction in TRL V6 Response T3-(ie 18 hrs): T3 (ie 18 hrs) post dose; for reduction of circulating concentration of TRL V6 / reduction of circulating TRL V6 concentration / time by which TRL V6 plasma concentration returns to baseline: SNDRI 3 mg/kg; for time by which TRL V6 plasma concentration returns to baseline: post dose
Procedure: As a typical example, whole blood samples are collected into 2 ml EDTA blood collection tubes, inverted several times to mix well, and placed on ice. The samples are then centrifuged at approximately 3000 rpm for 10-15 minutes at 4° C. Upon completion of centrifugation, the tube is placed on ice and the plasma is drawn off The plasma is place into a polypropylene tube and kept at 4° C. until analysis. Samples may be analyzed at any time up to about 4 days after collection. Samples are analyzed for TRL V6 response, as for example by NMR plasma lipoprotein analysis, as for example, the NMR LipoProfile®, the NMR LipoProfile®-II or the NMR LipoProfile®-III lipoprotein tests provided by LipoScience, Inc. of Raleigh, N.C.
The ability of investigational weight loss pharmaceutical agents to reduce the TRL V6 concentration in rats is shown with three compounds targeting different mechanisms of action including a known potent and selective 5-HT2C receptor agonist, a known potent and selective CB-1 receptor antagonist/inverse agonist, and a potent SNDRI (sibutramine) Each of these compounds are known to induce weight loss in rats and thus the biomarker of reduction in TRL V6 concentration correlates to the investigational weight loss pharmaceutical agents' ability to induce weight loss. Conversely, an opiate antagonist, (naltrexone) which is known to be ineffective in inducing weight loss in rats or in overweight and obese human subjects (Malcolm R et al., Int. J. Obes. 1985; 9(5):347-53), is shown to not reduce the TRL V6 concentration in rats, again correlating the biomarker of reduction in TRL V6 concentration to the investigational weight loss pharmaceutical agents' ability to induce weight loss.
DIO-LE rats maintained on a high fat chow are administered either a vehicle dose or an acute dose of test compound. At specified time points post dose, animals are sacrificed and blood is collected in blood sample tubes containing EDTA and processed essentially as described above. Samples are analyzed by NMR LipoProfile® lipoprotein sub-particle test with report of all particle subtypes (specifically the TRL V6 concentration or particle number).

[3] = AUC 5-11 hr. time points from lipid load
[4] = AUC 5-11 hr. time points from lipid load, chylomicrons
[5] = versus placebo, 5-11 hr. post fat load
[6] = rats, 2 hr. post dose, 5-HT2C agonist 10 mg/kg, naltrexone 10 mg/kg oral
[7] = rats, 5 hr. post dose, CB-1 antagonist 0.3 mg/kg
[8] = rats, 5-HT2C agonist 10 mg/kg, CB-1 antagonist 0.3 mg/kg, naltrexone 10 mg/kg oral

CC(C)CC(N(C)C)C1(c2ccc(Cl)cc2)CCC1 (stereo not drawn) [Sibutramine, sibutramine]
decrease in the TRL V6 response versus placebo ([1]; AUC 5-11 hr. post fat load, mixed effects model, average of treated arms): about 28%
Geometric LS Mean of AUC, analyte TRL V5 [1, 3]: 222.34
Geometric LS Mean of AUC, analyte TRL V6 [1, 3]: 119.35
Geometric LS Mean of AUC, analytes TRL V6 + Chy [1, 3]: 205.0
Geometric LS Mean of AUC, analytes TRL V6 + TRL V5 [1, 3]: 364.08
Geometric LS Mean of AUC, analytes TRL V6 + V5 + Chy [1, 3]: 458.04
Sibutramine/Placebo Ratio of AUC, analyte TRL V5 [1, 3]: 1.10
Sibutramine/Placebo Ratio of AUC, analyte TRL V6 [1, 3]: 0.73
Sibutramine/Placebo Ratio of AUC, analytes TRL V6 + Chy [1, 3]: 0.81
Sibutramine/Placebo Ratio of AUC, analytes TRL V6 + TRL V5 [1, 3]: 0.88
Sibutramine/Placebo Ratio of AUC, analytes TRL V6 + V5 + Chy [1, 3]: 0.89
Geometric LS Mean of AUC, analyte Chy [1, 4]: 81.11
Sibutramine/Placebo Ratio of AUC, analyte Chy [1, 4]: 0.98
change in mean V-TRL response (in words) [1, 5]: statistically significant decrease
change in plasma concentrations of TRL V1, V2, V3, V4, or V5 subtypes (in words) [1, 5]: does not show a significant change
Reduction in TRL V6 Response T1-(ie 2 hrs) [2]: 78%
Reduction in TRL V6 Response T2-(ie 5 hrs) [2]: 78%
Reduction in TRL V6 Response T3-(ie 18 hrs) [2]: 0%
reduction of circulating concentration of TRL V6 [2, 6]: about 78%
reduction of circulating TRL V6 concentration ([2]; rats, 2 hr. post dose): about 78%
reduction of circulating TRL V6 concentration [2, 7]: about 78%
reduction of circulating concentration of TRL V6 [2, 7]: about 78%
time by which TRL V6 plasma concentration returns to baseline [2, 8]: about 18 hr

O=C1CC[C@@]2(O)[C@H]3Cc4ccc(O)c5c4[C@@]2(CCN3CC2CC2)[C@H]1O5 [Naltrexone, naltrexone]
Reduction in TRL V6 Response T1-(ie 2 hrs) [2]: 30%
Reduction in TRL V6 Response T2-(ie 5 hrs) [2]: 0%
Reduction in TRL V6 Response T3-(ie 18 hrs) [2]: 0%
TRL V6 level at 18 hr. post dose (in words) ([2]; rats, 10 mg/kg oral, 18 hr. post dose): unchanged
effect on circulating TRL V6 levels (in words) ([2]; rats, 10 mg/kg orally administrated dose): minimal effect
reduction of circulating concentration of TRL V6 [2, 6]: 30%
time by which TRL V6 plasma concentration returns to baseline [2, 8]: 5 h
